Test results published in PMC6895199, “A new antiviral scaffold for human norovirus identified with computer-aided approaches on the viral polymerase” (Scientific Reports, 2019).
Like-named read-outs stand apart in the source and are kept apart here.

Experiments:
[1] = test system: MNV; assay: MNV CPE reduction assay (MTS) in RAW 264.7 cells; format: cell-based, mouse norovirus (MNV-1.CW1); conditions: Norovirus, RAW264.7, in Mus musculus
Experimental: The newly prepared compounds 2–7 and 34–35 were evaluated for their antiviral effect against the genogroup V mouse norovirus (MNV) using the mouse macrophage cell line RAW264.7. This assay evaluates the ability of the compounds to protect infected cells from the virus-induced cytopathic effect, thus being suitable to identify inhibition of virus replication at every step of the virus life cycle, and representing a robust cellular assay available for the rapid evaluation of potential norovirus inhibitors. Compounds identified using MNV have shown effects against HuNoV in vitro and in vivo, as in the case of nucleoside RdRp inhibitor 2′-C-methylcytidine (2CMC)[34]–[36]. Unfortunately, despite not presenting the aqueous solubility issues we had previously encountered for 1[29], no significant antiviral effect could be observed in this assay for the new compounds up to the maximum concentration tested. The new structural modifications, despite retaining inhibition of the RdRp in an isolated enzyme activity assay and showing no cytotoxic effects at the test concentrations in the MNV antiviral assay (Supplementary Table S1), are correlated with a lack of antiviral activity. As these new structures present the same limitation of most non-nucleoside HuNoV polymerase inhibitors reported so far[22], we were prompted to apply a different computer-aided strategy to further modify the scaffold of 1, with the aim to achieve an antiviral effect in cellular systems. […]
Since the main scope of this work was to find new norovirus inhibitors which show antiviral effects against both the HuNoV RdRp and in norovirus-infected cells, priority was given to the evaluation of most of the new molecules for their antiviral activity against MNV in infected RAW cells. The nucleoside 2′-C-methylcytidine was used as positive control. The test compounds were evaluated at eight different concentrations (range 0.6–100 µM) and their ability to reduce the virus-induced cytopathic effect was assessed.
(§1) Cells and virus: MNV (virus strain MNV-1.CW1) was propagated in RAW 264.7 cells grown in DMEM (Life Technologies, Gent, Belgium) supplemented with 10% or 2% FBS, 2 mM L-glutamine, 20 mM HEPES, 0.075 g/L sodium bicarbonate, 1 mM sodium pyruvate, 100 U penicillin/mL and 100 µg/mL streptomycin at 37 °C in a humidified atmosphere of 5% CO2. The human norovirus GI.1 replicon harboring gastric tumor-1 cell line (HGT-NV) (kindly provided by Dr. Ian Goodfellow, University of Cambridge) was maintained in DMEM supplemented with 10% FBS, 2mM L-glutamine, 0.075 g/L sodium bicarbonate and 1.0 mg/ml of Geneticin (G418; Life Technologies), at 37 °C in a humidified atmosphere of 5% CO2[34].
Antiviral assay with MNV: The antiviral activity of the Compounds was determined using an MTS [3-(4,5-dimethylthiazol-2-yl)-5-(3-carboxymethoxyphenyl)-2-(4-sulfophenyl)-2H-tetrazolium]-based cytopathic effect (CPE) reduction assay. […] Then, a MTS-phenazinemethosulfate (MTS/PMS) stock solution [(2 mg/mL MTS (Promega, Leiden, The Netherlands) and 46 µg/mL PMS (Sigma–Aldrich, Bornem, Belgium) in PBS at pH 6–6.5)] was diluted 1/20 in MEM (Life Technologies, Gent, Belgium) and 75 µL were added to each well. After 2 h, the optical density (OD) was read at 498 nm. The %CPE reduction was calculated as [(ODtreated)MNV − ODVC]/[ODCC − ODVC] × 100, where ODCC represents the OD of the uninfected untreated cells, whereas ODVC and (ODtreated)MNV represent the OD of infected untreated cells and virus-infected cells treated with a compound concentration, respectively. The 50% effective concentration (EC50) was defined as the compound concentration that protected 50% of the cells from virus-induced CPE[34].

[2] = Cytotoxicity by the MTS method on uninfected cells; format: cell-based; conditions: mouse, uninfected RAW 264.7 cells
Experimental: Cytotoxicity: The cytotoxicity of the Compounds was evaluated by the MTS method, by exposing uninfected cells to the same concentrations of compounds for 3 days. The %cell viability was calculated as (ODtreated/ODCC) × 100, where ODCC is the OD of uninfected untreated cells and ODtreated are uninfected cells treated with compound. The CC50 was defined as the compound concentration that reduces the number of viable cells by 50%[34].

[3] = test system: HuNoV GI.1 replicon; assay: HuNoV GI replicon assay (HGT-NV cells, qRT-PCR); format: cell-based, human norovirus GI.1
Experimental: Given that in this system the gene encoding for the major capsid protein is replaced by a neomycin resistance gene, no new virus particles will be produced but the non-structural proteins are expressed and the replication of the genomic RNA can be studied.
as §1
Antiviral assay with the HGT-NV replicon: The inhibitory effect of Compounds on human norovirus replication was assessed by quantification of the levels of HuNoV GI replicon RNA and of the reference (housekeeping) gene β-actin mRNA [by quantitative reverse transcription polymerase chain reaction (qRT-PCR)]. To this end, HGT cells (2000 cells/well) were seeded in 96-well plates, in complete DMEM without the selection marker G418. Following an incubation period of 24 h, a serial dilution of rupintrivir was added to the cultures. After 72 h of incubation, cell monolayers were washed with phosphate-buffered saline (PBS) and collected for quantification of RNA load by qRT-PCR. Intracellular RNA was extracted from cells using the cell-to-cDNA lysis buffer (Ambion, Life Technologies). For detection of HuNoV GI replicon RNA, forward (5′-CCG GCT ACC TGC CCA TTC-3′), reverse (5′-CCAGATCATCCTGATCGACAAG-3′) primers and probe (5′-FAM-ACATCGCATCGAGCGAGCACGTAC-TAMRA-3′) for the neomycin gene were used. For detection of β-actin mRNA, forward (5′-GGCATCCACGAAACTACCTT-3′), reverse (5′-AGCACTGTGTTGGCGTACAG-3′) primers and probe (5′-HEX-ATCATGAAGTGTGACGTGGACATCCG-BHQ1–3′) were used. One-step qRT-PCR was performed in a 20 µL reaction mixture containing 10 µl 2X iTaq Universal SYBR® Green one step reaction mix (Bio-rad, California, USA), 5.17 µl RNAse free water, 0.5 µl of iScript reverse transcriptase (Bio-rad, California, USA), 4 µl of the template RNA and either 300 nM of HuNoV GI replicon primers and probe, 300 nM of β-actin primers and 200 nM of probe. Cycling conditions were: reverse transcription at 50 °C for 10 min, initial denaturation at 95 °C for 3 min, followed by 40 cycles of denaturation at 95 °C for 15 s, annealing and extension at 60 °C for 30 seconds (Roche Lightcycler®96, Roche Diagnostics, Belgium). To determine the relative expression levels of HuNoV GI replicon RNA, β-actin was used as a normalizer and ratios were calculated using the Pfaffl method. The Expression Ratio (HuNoV GI Replicon/β-actin) was calculated as: Expression Ratio = (E HuNoV)^ΔCT, HuNoV (CC – TC)/(Eβ-actin)^ΔCT, β-actin (CC – TC), where E HuNoV and Eβ-actin represent the amplification efficiency (E = 10^–1/slope) for the HuNoV GI replicon and β-actin qRT-PCR reactions, respectively. ΔCT, HuNoV (CC – TC) is the Ct of untreated control cells (CC) minus the Ct of cells treated with a compound concentration (TC) obtained with HuNoV GI replicon primers and probe. ΔCT, β-actin (CC – TC) is the Ct of untreated control cells (CC) minus the Ct of cells treated with a compound concentration (TC) obtained with β-actin primers and probe. Efficiency values (E HuNoV and Eβ-actin) were determined for each qRT-PCR reaction.

[4] = molecular target: HuNoV (GII.4) RdRp (Norovirus Hu/GII.4/Sydney/NSW0514/2012/AU, UniProt K4L8Z7); assay: Quantitative fluorescent RdRp activity assay (PicoGreen, poly(C) template); format: biochemical, human norovirus Sydney 2012; conditions: HuNoV (GII.4) RdRp activity; six concentrations 0.1–100 µM; mean ± SD
Experimental: The newly synthesised compounds, including the carboxylate ester derivatives 34–35 and 7 from the Core Hopping approach, were evaluated for their enzymatic inhibition of human norovirus Sydney 2012 (HuNoV (GII.4)) RdRp activity in vitro, using a quantitative fluorescent assay. Compounds were tested at six different concentrations (concentration range examined: 0.1–100 µM) and compared to the relative activity of mock treated samples containing the vehicle only (0.5% DMSO [vol/vol]). PPNDS [Pyridoxal-5′-phosphate-6-(2′-naphthylazo-6′-nitro-4′,8′-disulfonate) tetrasodium salt], a previously reported potent inhibitor of NoV RdRp activity, and 1 were used as positive controls. Dose-dependent inhibitory response curves were used to establish IC50 values for the eight test compounds, as reported in Table 1 (see also Supplementary Fig. S1).
The newly prepared compounds 48–60 were initially evaluated against norovirus Sydney 2012 RdRp activity in vitro using a quantitative fluorescent assay. Compounds were tested at a fixed concentration of 20 µM and compared to the relative activity of mock treated samples. PPNDS and 1 were used as positive controls. […] These two rings are structural features present in 1 and in one of its derivatives we have previously reported. […] From these observations, the thiophene ring appears not to influence inhibitory activity. Derivatives in which the central core of 48 has been used to link the two terminal hydrophobic rings of 1 or of its derivatives we have previously reported[25] (55, 57, 58) appear to retain the RdRp inhibitory activity found for 48 (~20% at 20 µM). A similar effect is obtained when a sulfonyl group, as in our hit 1, is used to link ring 2, regardless if it is a thiazole (59) or an unsubstituted phenyl ring (60), to the rest of the molecule. […] Overall, even if showing a reduced biochemical activity in comparison with 1, some of the new derivatives can be considered as modest HuNoV RdRp inhibitors at 20 µM.
(§2) Fluorescent RdRp activity assays were carried out as previously described[12],[29]. Briefly, RdRp activity was quantified by monitoring the formation of double-stranded RNA (dsRNA) from a single stranded homopolymeric template, poly(C) (Sigma Aldrich), using the fluorescent dye PicoGreen (Life Technologies, Carlsbad, CA, USA). RdRp assays were performed in 384-well plates, and each reaction mixture contained 400 ng enzyme, 45 μM GTP, 10 ng/μL poly(C) RNA, 2.5 mM MnCl2, 5 mM dithiothreitol, (DTT), 0.01% bovine serum albumin (BSA), and 0.005% Tween 20 in 20 mM Tris-HCl, pH 7.5, with a final reaction volume of 25 μL. The PPNDS and compound 1 were used as a positive controls. RdRps were incubated for 10 mins at 30 °C in the presence of the test compounds or the compound vehicle DMSO (0.5% vol/vol) before addition into the reaction mixture, which was then allowed to run 15 min at 30 °C then terminated with 10 mM EDTA, followed by PicoGreen staining and dsRNA quantitation. GraphPad Prism V6.05 (La Jolla, CA, USA) was used to plot the IC50 values. A secondary gel-based polymerase activity assay was used as a counter-screen as described below, to exclude the possibility of RdRp activity enhancement. Primed elongation activity was examined in a gel-based assay as previously described[12],[29] using the RNA template (PE44-NoV). Gels were imaged using BioRad (Hercules, CA, U.SA) Geldoc Universal Hood II, running BioRad Image Lab software, V4.1, build 16.

[5] = test system: HuNoV (GII.4) RdRp; assay: Counter-screen gel-shift assay of primed elongation activity (PE44-NoV template); format: biochemical, human norovirus; conditions: fixed concentration of 100 μM
Experimental: To further confirm RdRp inhibition and exclude any potential false positives from the first fluorescence RdRp assay, the eight molecules were then assessed using a gel-shift enzyme activity assay at a fixed concentration of 100 μM, following a procedure previously adopted by our research group.
Figure 5 A counter-screen gel-shift assay was used to confirm HuNoV (GII.4) RdRp inhibitory activity of compounds 2, 3, 34 and 35 (A), 4, 5, 6 (B) and 7 (C). The eight compounds were examined for inhibition of primed elongation activity. PE44-NoV RNA templates (32 nucleotides) were extended (44 nucleotides) by the RdRp in the absence of any test compounds (0.5% DMSO [vol/vol] negative control) or with test compounds at a fixed concentration of 100 μM. […] Full-length gels are presented in Supplementary Fig. S3.
as §2

[6] = Norwalk virus, HGT-1, 72 h, read-out: EC50 values (column head printed 'M'), HuNoV GI replicon in HGT-1 cells, replicon RNA by qRT-PCR
[7] = Supplementary Table S1, at least two independent experiments

## O=C(NC(=S)Nc1ccc(N2CCN(S(=O)(=O)c3cccs3)CC2)cc1)c1ccccc1 [Compound 59, N-((4-(4-(Thiophen-2-ylsulfonyl)piperazin-1-yl)phenyl)carbamothioyl)benzamide]
[1]; Table 2, RAW 264.7, range 0.6–100 µM, at least three independent experiments
  EC50: 43.8 ± 16.9 µM
[2]; Table 2, at least three independent experiments
  CC50 at 3 days: > 100 µM
[3]; HuNoV GI replicon in HGT-1 cells, 72 h, replicon RNA by qRT-PCR
  EC50 values (column head printed 'M'): low micromolar range
[3]; [6]
  EC50: 10 µM
[3]; read-out: EC50 values (column head printed 'M'), HuNoV GI replicon in HGT-1 cells, 72 h, replicon RNA by qRT-PCR
  EC50: 10.9 ± 11.1 µM

## Cc1nc(N=Nc2cc(S(=O)(=O)[O-])c3cc([N+](=O)[O-])cc(S(=O)(=O)[O-])c3c2)c(COP(=O)([O-])[O-])c(C=O)c1O.[Na+].[Na+].[Na+].[Na+] [PPNDS, Pyridoxal-5′-phosphate-6-(2′-naphthylazo-6′-nitro-4′,8′-disulfonate) tetrasodium salt, reference compound]
[4]
  IC50: 1.5 ± 0.25 µM
[5]
  inhibition of primed elongation activity (gel-shift): complete inhibition

## CCOC(=O)/C=C/[C@H](C[C@@H]1CCNC1=O)NC(=O)[C@@H](CC(=O)[C@@H](NC(=O)c1cc(C)on1)C(C)C)Cc1ccc(F)cc1 [Rupintrivir, reference compound]
[3]; [6]
  EC50: 1.5 ± 0.4 µM

## O=C1NN(c2cccc(C(=O)O)c2)C(=O)/C1=C/c1ccc(-c2ccc(S(=O)(=O)Nc3ccccc3)cc2)o1 [Compound 3, (E)-3-(3,5-dioxo-4-((5-(4-(N-phenylsulfamoyl)phenyl)furan-2-yl)methylene)pyrazolidin-1-yl)benzoic acid]
[1]; [7]
  EC50: > 100 µM
[4]
  IC50: 22.5 ± 6.5 µM
[2]; [7]
  CC50 at 3 days: > 100 µM
